Legend:
[1] = test system: Balb/c mice; experiment: Injection of 1% NCT solution into the tail vein of mice (tolerability); format: in vivo, mouse
Procedure: In this model, injection of 1% aqueous NCT solution was tolerated at a volume that equals approximately 10% of the total blood volume of a mouse. A 1% solution contains 55 mmol/L NCT, which is more than 1000 times greater than any physiologic concentration produced by human leukocytes.
Balb/c mice were injected into the tail vein with a sterile aqueous solution of 1% NCT. Four mice were injected with 0.05 ml, four mice with 0.1 ml, one mouse with 0.2 ml, and one mouse with 0.3 ml, respectively, of the NCT solution.
In this Example, injection of 1% aqueous NCT solution was tolerated in the mouse model at a volume that equals approximately 10% of the total blood volume of a mouse.

[2] = test system: Escherichia coli (ATCC 11229); experiment: Bactericidal activity of NCT without and with heparin (CFU counts); format: cell-based
Procedure: FIG. 2 presents a plot of bactericidal activity of 1% NCT without and with 125 IE/mL heparin against Escherichia coli ATCC 11229 at pH 7.1 and 37° C. Mean values±standard error of the mean of three independent experiments. P>0.05 between NCT without and NCT with heparin.
NCT was dissolved in 0.1 M phosphate buffer containing either 125 IE/mL heparin or no heparin. The final NCT concentration was 1%. Various bacterial species were grown in tryptic soy broth overnight, were washed twice in saline and then suspended in the NCT and NCT/heparin solutions. The species were Staphylococcus aureus (ATCC 25923), Escherichia coli (ATCC 11229), Streptococcus pyogenes, Staphylococcus epidermidis, Pseudomonas aeruginosa, Proteus mirabilis, and methicillin-resistant Staphylococcus aureus. Controls were performed with the foregoing bacterial species suspended in 0.1 M phosphate buffer without additives and in 0.1 M phosphate buffer containing 125 IE/mL heparin. All of the solutions were incubated at 37° C. and pH 7.1. After 1, 3, 5, 8, and 10 minutes, aliquots of 100 μL were removed and diluted 10-fold or 100-fold in 0.6% sodium thiosulfate solution to inactivate the NCT. Aliquots (50 μL) of these dilutions were spread on tryptic soy agar plates. The plates were incubated at 37° C. and colony forming units of bacteria were counted after 24 and 48 hours. […]

[3] = test system: Pseudomonas aeruginosa; experiment: as above; format: cell-based
[4] = test system: Candida albicans, CBS 5982; experiment: Fungicidal activity of NCT without and with heparin (CFU counts); format: cell-based; settings: 1% NCT, 125 IE/mL heparin, pH 7.1, 37° C., 30-120 min
Procedure: FIG. 9 presents a plot of fungicidal activity of 1% NCT without and with 125 IE/mL heparin against Candida albicans (CBS 5982) at pH 7.1 and 37° C. Mean values±standard error of the mean of three independent experiments. P>0.05 between NCT without and NCT with heparin.
NCT was dissolved in 0.1 M phosphate buffer containing either 125 IE/mL heparin or no heparin. The final NCT concentration was 1%. Yeast (Candida albicans, CBS 5982) grown in tryptic soy broth overnight was washed twice in saline and then suspended in the NCT and NCT/heparin solutions. Controls were performed with the yeast suspended in 0.1 M phosphate buffer without additives and in 0.1 M phosphate buffer containing 125 IE/mL heparin. After incubation times of 30, 60, 90 and 120 minutes at 37° C. and pH 7.1, aliquots of 100 μL were removed and diluted tenfold or 100-fold in 0.6% sodium thiosulfate solution to inactivate the NCT. Aliquots (50 μL) of these dilutions were spread on tryptic soy agar plates. The plates were incubated at 37° C. and colony forming units of Candida albicans were counted after 24 and 48 hours. The assays were performed three times serially and the mean count was reported (FIG. 9). […] Statistical analysis was performed by Student's paired t test and one way analysis of variance (P>0.05 between NCT without and NCT with heparin). […]

[5] = test system: Swiss mice; experiment: Intraperitoneal injection in Swiss mice; format: in vivo; settings: 1% NCT i.p., a further study
[6] = test system: external otitis; settings: human external otitis [Ref 15]; cited from earlier work
[7] = test system: chronic rhinosinusitis; settings: pilot study in chronic rhinosinusitis [Ref. 16]; cited from earlier work
[8] = Balb/c mice, sterile aqueous 1% NCT, 0.05-0.3 ml i.v.
[9] = 0.1% NCT, virtually identical experiments
[10] = 1% NCT, 125 IE/mL heparin, pH 7.1, 37° C., 1-10 min

SMILES: O=S(=O)(O)CCNCl [NCT, N-chlorotaurine]
- tolerated injection volume ([1]; 1% aqueous NCT solution i.v.): approximately 10 % of the total blood volume of a mouse
- changes of behaviour after tail vein injection [1, 8]: no changes of behaviour
- survival after tail vein injection [1, 8]: all mice survived
- influence of heparin on the killing of bacteria [2, 9]: no statistically significant influence of heparin on the killing of bacteria
- killing activity of NCT with vs without heparin [2, 10]: no difference in the killing activity
- influence of heparin on the killing of bacteria [3, 9]: no statistically significant influence of heparin on the killing of bacteria
- killing activity of NCT with vs without heparin [3, 10]: no difference in the killing activity
- killing activity of NCT without vs with heparin [4]: no statistically significant difference in the killing activity
- tolerated intraperitoneal injection [5]: tolerated up to one mL 1% NCT
- efficacy versus standard medication [6]: more effective than a standard medication
- tolerability [7]: good tolerability

Source: patent publication US20110091570A1, “Compositions and Devices for Antisepsis and Anticoagulation” (priority 2008, published 2011)
